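Five concentrations, 48 hours, 96-well plates. TGI marks complete inhibition of growth.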
Legend:
Assay in all cases: NCI anticancer screen, dose series, 48 h
A549 NSCLC = test system: A549 NSCLC
U251 CNS = test system: U251 CNS
SF-295 CNS = test system: SF-295 CNS
OVCAR-3 ovarian = test system: OVCAR-3 ovarian
COLO 205 colon = test system: COLO 205 colon
NCI-H23 lung = test system: NCI-H23 lung
HOP-62 NSCLC = test system: HOP-62 NSCLC
UACC-257 melanoma = test system: UACC-257 melanoma
SR leukemia = test system: SR leukemia
MDA-N = test system: MDA-N
NCI-H522 lung = test system: NCI-H522 lung
MDA-MB-231 breast = test system: MDA-MB-231 breast
ACHN renal = test system: ACHN renal
DU-145 prostate = test system: DU-145 prostate
SW-620 colon = test system: SW-620 colon
HCT-116 colon = test system: HCT-116 colon
NCI-H460 lung = test system: NCI-H460 lung
HCC-2998 colon = test system: HCC-2998 colon
MALME-3M melanoma = test system: MALME-3M melanoma
MOLT-4 leukemia = test system: MOLT-4 leukemia
786-0 renal = test system: 786-0 renal
UO-31 renal = test system: UO-31 renal
SK-MEL-5 melanoma = test system: SK-MEL-5 melanoma
K-562 leukemia = test system: K-562 leukemia
NCI-H226 lung = test system: NCI-H226 lung
MDA-MB-435 = test system: MDA-MB-435
SK-OV-3 ovarian = test system: SK-OV-3 ovarian
HL-60(TB) leukemia = test system: HL-60(TB) leukemia
SK-MEL-28 melanoma = test system: SK-MEL-28 melanoma
OVCAR-4 ovarian = test system: OVCAR-4 ovarian
BT-549 breast = test system: BT-549 breast
SF-539 CNS = test system: SF-539 CNS
M14 melanoma = test system: M14 melanoma
HT29 colon = test system: HT29 colon
CAKI-1 renal = test system: CAKI-1 renal
OVCAR-8 ovarian = test system: OVCAR-8 ovarian
HOP-92 NSCLC = test system: HOP-92 NSCLC
SNB-75 CNS = test system: SNB-75 CNS
TK-10 renal = test system: TK-10 renal
A498 renal = test system: A498 renal
PC-3 prostate = test system: PC-3 prostate
SN12C renal = test system: SN12C renal
T-47D breast = test system: T-47D breast
IGROV1 ovarian = test system: IGROV1 ovarian
MCF7 breast = test system: MCF7 breast
SF-268 CNS = test system: SF-268 CNS
HS 578T breast = test system: HS 578T breast
CCRF-CEM leukemia = test system: CCRF-CEM leukemia
UACC-62 melanoma = test system: UACC-62 melanoma
EKVX NSCLC = test system: EKVX NSCLC
SNB-19 CNS = test system: SNB-19 CNS
RXF 393 renal = test system: RXF 393 renal
OVCAR-5 ovarian = test system: OVCAR-5 ovarian
KM12 colon = test system: KM12 colon
RPMI-8226 leukemia = test system: RPMI-8226 leukemia
NCI/ADR-RES ovarian = test system: NCI/ADR-RES ovarian
LOX IMVI melanoma = test system: LOX IMVI melanoma
SK-MEL-2 melanoma = test system: SK-MEL-2 melanoma
HCT-15 colon = test system: HCT-15 colon

Measured: TGI

C[C@]12CC[C@H](O)CC1=CC[C@@H]1C2CC[C@]2(C)c3n[nH]nc3CC12 (some centres undefined)
96.4 µM: SR leukemia
not listed: RPMI-8226 leukemia | NCI/ADR-RES ovarian | LOX IMVI melanoma | SK-MEL-2 melanoma | HCT-15 colon
> 100 µM: all other assays above

c1cc(-c2ccc(-c3ccc(-c4ccc(-c5cccc6nsnc56)[nH]4)c4nsnc34)[nH]2)c2nsnc2c1
30.1 µM: HL-60(TB) leukemia
not listed: UACC-257 melanoma | SR leukemia | SF-539 CNS | CAKI-1 renal | A498 renal | RXF 393 renal
> 100 µM: all other assays above

N#CC[C@@H](O)COc1ccccc1
not listed: HOP-92 NSCLC | IGROV1 ovarian | NCI/ADR-RES ovarian
> 100 µM: all other assays above

C=C1C(=O)O[C@@H]2O[C@@]3(C)CC[C@H]4[C@H](C)CC[C@@H]1[C@@]24O3
36.3 µM: OVCAR-4 ovarian
48.7 µM: EKVX NSCLC
21.3 µM: KM12 colon
86.4 µM: MALME-3M melanoma
63 µM: UO-31 renal
65.9 µM: NCI-H460 lung
47.9 µM: UACC-257 melanoma
29.7 µM: UACC-62 melanoma
40.1 µM: NCI-H23 lung | LOX IMVI melanoma
81.8 µM: MDA-MB-231 breast
11.8 µM: CCRF-CEM leukemia
83.5 µM: HT29 colon
46.4 µM: CAKI-1 renal
54.7 µM: RXF 393 renal
41.3 µM: 786-0 renal
59.2 µM: SN12C renal
27.6 µM: HCT-15 colon
93.5 µM: OVCAR-3 ovarian
47 µM: SR leukemia
62.8 µM: NCI-H522 lung
32.2 µM: HCT-116 colon | SF-539 CNS
25.3 µM: MCF7 breast
36.8 µM: RPMI-8226 leukemia
41 µM: HCC-2998 colon
12.4 µM: HOP-92 NSCLC
22.2 µM: BT-549 breast
52.7 µM: PC-3 prostate
26.9 µM: ACHN renal
38.9 µM: MOLT-4 leukemia
27.5 µM: DU-145 prostate
46.9 µM: SK-MEL-2 melanoma
34.3 µM: COLO 205 colon
32.7 µM: TK-10 renal
28.3 µM: IGROV1 ovarian
38.1 µM: T-47D breast
not listed: OVCAR-8 ovarian | SNB-75 CNS | NCI/ADR-RES ovarian
> 100 µM: all other assays above

O=C1C=CC(=O)c2c1ccc1c3ccccc3n(CCCCCCCCn3c4ccccc4c4ccc5c(c43)C(=O)C=CC5=O)c21
not listed: SR leukemia | UO-31 renal | HOP-92 NSCLC | SNB-75 CNS
> 100 µM: all other assays above

Source: PubChem BioAssay (NCI)
